≈ marks a conversion by molar mass, not a printed value.
Experiments:
[1] = tested on: Mtb clinical strain TN587 (isoniazide-resistant); format: cell-based, Mycobacterium tuberculosis
[2] = tested on: Mtb clinical strain NHN382 (isoniazide-resistant); format: cell-based, Mycobacterium tuberculosis

| Compound | MIC, Mtb strain TN587 [1] | MIC, Mtb strain NHN382 [2] |
| --- | --- | --- |
| CCCCOC(=O)Nc1cc2nc(C3CCCCC3)[nH]c2cc1N(C)C [Compound 5f, 5-Butyloxycarbonylamino-2-cyclohexyl-6-N,N-dimethylamino-1H-benzo[d]imidazole] | 0.13 µg/mL (≈ 0.363 µM) | – |
| NNC(=O)c1ccncc1 [INH, isoniazid, reference compound] | 0.25 µg/mL (≈ 1.82 µM) | 0.25 µg/mL (≈ 1.82 µM) |

— paper PMC3933301 (Journal of medicinal chemistry, 2013)
